Experimental data from patent publication US7495104B2, “Quinoline or quinazoline derivatives inhibiting auto-phosphorylation of fibroblast growth factor receptors” (Kirin Beer Kabushiki Kaisha, priority 2001, dated 2009).

Molecular target: Bek (Homo sapiens, UniProt P21802)
Test: Inhibitory activity against Bek-autophosphorylation using ELISA method in OCUM-2MD3 cells
Type: cell-based
Conditions: 1 hr with compound, read-out: IC50 (concentration necessary for inhibiting 50% of Bek-phosphorylation)
Experimental: Human scirrhus stomach cancer cells OCUM-2MD3 (kindly provided by Dr. Kosei Hirakawa, Osaka City University) were cultured in an RPMI medium containing 10% fetal calf serum (purchased from ICN) within a 5% carbon dioxide incubator until 50 to 90% confluent. The harvested cells were seeded onto 96-well flat-bottom plate in RPMI containing 0.1% fetal calf serum at 3.5×10^4 cells per well, followed by cultivation at 37° C. overnight. A solution of the test compound in dimethyl sulfoxide was added to each well, and the cultivation was continued at 37° C. for additional one hr. The medium was removed, and 50 μl of lysis buffer (20 mM HEPES (pH 7.4), 150 mM NaCl, 0.2% Triton X-100, 10% glycerol, 5 mM sodium orthovanadylate, 5 mM disodium ethylenediaminetetraacetate, and 2 mM Na4P2O7) was then added thereto. The mixture was shaken at 4° C. for 2 hr to prepare cell extracts.
Separately, phosphate buffered saline (50 μl, pH 7.4) containing 5 μg/ml of anti-phospho-tyrosine antibody (PY20; purchased from Transduction Laboratories) was added to a microplate for ELISA (Maxisorp; purchased from NUNC), followed by standing at 4° C. overnight to form a solid phase on the wells. After washing of the plate, 300 μl of a blocking solution was added, followed by standing at room temperature for 2 hr to perform blocking. After washing, the whole quantity of the cell extracts was transferred to the wells, and the plate was then allowed to stand at 4° C. overnight. After washing, an anti-Bek antibody (Bek (C-17), purchased from Santa Cruz Biotechnology) or Anti-Human K-sam Rabbit IgG Affinity Purity (purchased from IBL Co., Ltd.) was allowed to react at room temperature for one hr, and, after washing, a peroxidase-labeled anti-rabbit Ig antibody (purchased from Amersham) was allowed to react at room temperature for one hr. After washing, a chromophoric substrate for peroxidase (purchased from Sumitomo Bakelite Co., Ltd.) was added thereto to initiate a reaction. After a suitable level of color development, a reaction termination solution was added to stop the reaction, and the absorbance at 450 nm was measured with a microplate reader. The Bek-phosphorylation activity for each well was determined by presuming the absorbance without the addition of the medicament to be 100% Bek-phosphorylation activity and the absorbance with the addition of a large excess of a positive control (N-{4-[(6,7-dimethoxy-4-quinolyl)oxy]phenyl}-N′-(3,3-dimethylbutyl)urea, 1000 nM) to be 0% Bek-phosphorylation activity. The concentration of the test compound was varied on several levels, the Bek-phosphorylation inhibitory activity was determined for each case, and the concentration of the test compound necessary for inhibiting 50% of Bek-phosphorylation (IC50) was calculated.

Bek, sequence (P21802 431-767 limits assumed): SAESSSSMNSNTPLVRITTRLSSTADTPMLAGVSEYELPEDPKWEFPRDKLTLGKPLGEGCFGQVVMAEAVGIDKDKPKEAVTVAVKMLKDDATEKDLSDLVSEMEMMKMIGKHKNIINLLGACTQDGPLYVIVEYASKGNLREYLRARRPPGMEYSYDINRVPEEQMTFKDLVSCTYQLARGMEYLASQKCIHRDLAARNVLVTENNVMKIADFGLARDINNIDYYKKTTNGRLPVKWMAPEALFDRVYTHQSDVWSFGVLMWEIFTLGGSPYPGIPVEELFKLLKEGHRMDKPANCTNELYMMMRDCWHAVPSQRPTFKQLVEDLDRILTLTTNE

| SMILES | IC50 [µM] |
| --- | --- |
| C=C[C@H]1CN2CCC1C[C@@H]2COc1cc2nccc(Oc3ccc(Nc4ccc(C(C)(C)C)cc4)cc3)c2cc1OC (stereo in doubt) [Compound 57, (4-Tert-butylphenyl)-{4-[6-methoxy-7-(5-vinyl-1-azabicyclo-[2.2.2]oct-2-ylmethoxy)quinolin-4-yloxy]phenyl}amine] | 3.83 |
| COc1ccc(Nc2ccc(Oc3ccnc4cc(OC)c(OC)cc34)cc2)cc1 [Compound 1, [4-(6,7-Dimethoxyquinolin-4-yloxy)phenyl]-(4-methoxyphenyl)-amine] | 3.93 |
| C=Cc1ccc(Nc2ccc(Oc3ccnc4cc(OC)c(OC)cc34)cc2)cc1 [Compound 2, [4-(6,7-Dimethoxyquinolin-4-yloxy)phenyl]-(4-vinylphenyl)amine] | 7.94 |
| COc1cc2nccc(Oc3ccc(Nc4ccc(-c5ccccc5)cc4)cc3)c2cc1OC [Compound 3, Biphenyl-4-yl-[4-(6,7-dimethoxyquinolin-4-yloxy)phenyl]amine] | 4.58 |
| COc1cc2nccc(Oc3ccc(Nc4ccc(F)cc4)cc3)c2cc1OC [Compound 4, [4-(6,7-Dimethoxyquinolin-4-yloxy)phenyl]-(4-fluorophenyl)amine] | 3.73 |
| COc1cc2nccc(Oc3ccc(Nc4ccc(C(C)(C)C)cc4)cc3)c2cc1OC [Compound 5, (4-Tert-butylphenyl)-[4-(6,7-dimethoxyquinolin-4-yloxy)phenyl]amine] | 0.321 |
| COc1cc2nccc(Oc3ccc(Nc4ccc(OC(F)(F)F)cc4)cc3)c2cc1OC [Compound 6, [4-(6,7-Dimethoxyquinolin-4-yloxy)phenyl]-(4-trifluoromethoxy-phenyl)amine] | 0.875 |
| COc1cc2nccc(Oc3ccc(Nc4ccc(OCc5ccccc5)cc4)cc3)c2cc1OC [Compound 7, (4-Benzyloxyphenyl)-[4-(6,7-dimethoxyquinolin-4-yloxy)phenyl]-amine] | 1.8 |
| CCCCc1ccc(Nc2ccc(Oc3ccnc4cc(OC)c(OC)cc34)cc2)cc1 [Compound 8, (4-Butylphenyl)-[4-(6,7-dimethoxyquinolin-4-yloxy)phenyl]amine] | 1.5 |
| COc1cc2nccc(Oc3ccc(Nc4ccc(C(C)C)cc4)cc3)c2cc1OC [Compound 9, [4-(6,7-Dimethoxyquinolin-4-yloxy)phenyl]-(4-isopropylphenyl)-amine] | 0.313 |
| COc1cc2nccc(Oc3ccc(Nc4ccc(C5CCCCC5)cc4)cc3)c2cc1OC [Compound 10, (4-Cyclohexylphenyl)-[4-(6,7-dimethoxyquinolin-4-yloxy)phenyl]-amine] | 0.631 |
| COc1cc2nccc(Oc3ccc(Nc4ccc(C(C)(C)C)cc4)c(Cl)c3)c2cc1OC [Compound 11, (4-Tert-butylphenyl)-[2-chloro-4-(6,7-dimethoxyquinolin-4-yloxy)phenyl]amine] | 0.32 |
| COc1cc2nccc(Oc3ccc(Nc4ccc(C(C)(C)C)cc4)cc3Cl)c2cc1OC [Compound 12, (4-Tert-butylphenyl)-[3-chloro-4-(6,7-dimethoxyquinolin-4-yloxy)phenyl]amine] | 0.285 |
| COc1cc2nccc(Oc3ccc(Nc4ccc(C(C)(C)C)cc4)c(C)c3)c2cc1OC [Compound 13, (4-Tert-butylphenyl)-[4-(6,7-dimethoxyquinolin-4-yloxy)-2-methylphenyl]amine] | 0.279 |
| COc1cc(Oc2ccnc3cc(OC)c(OC)cc23)ccc1Nc1ccc(C(C)(C)C)cc1 [Compound 14, (4-Tert-butylphenyl)-[4-(6,7-dimethoxyquinolin-4-yloxy)-2-methoxyphenyl]amine] | 1.92 |
| COc1cc2nccc(Oc3ccc(Nc4ccc(C(C)(C)C)cc4)cc3OC)c2cc1OC [Compound 15, (4-Tert-butylphenyl)-[4-(6,7-dimethoxyquinolin-4-yloxy)-3-methoxyphenyl]amine] | 0.43 |
| COc1cc2c(Oc3ccc(Nc4ccc(C(C)(C)C)cc4)cc3)ccnc2cc1OCCCCN1CCOCC1 [Compound 25, (4-Tert-butylphenyl)-{4-[6-methoxy-7-(4-morpholin-4-ylbutoxy)-quinolin-4-yloxy]phenyl}amine] | 0.199 |
| COc1cc2c(Oc3ccc(Nc4ccc(C(C)(C)C)cc4)cc3)ccnc2cc1OCCCCN1CCN(C)CC1 [Compound 29, (4-Tert-butylphenyl)-(4-{6-methoxy-7-[4-(4-methylpiperazin-1-yl)butoxy]quinolin-4-yloxy}phenyl)amine] | 0.931 |

Continued, values first:

| IC50 [µM] | SMILES |
| --- | --- |
| 0.242 | COc1cc2nccc(Oc3ccc(Nc4ccc(C(C)(C)C)cc4)c(C)c3C)c2cc1OC [Compound 16, (4-Tert-butylphenyl)-[4-(6,7-dimethoxyquinolin-4-yloxy)-2,3-dimethylphenyl]amine] |
| 5.61 | COc1cc2nccc(Oc3cc(C)c(Nc4ccc(C(C)(C)C)cc4)cc3C)c2cc1OC [Compound 17, (4-Tert-butylphenyl)-[4-(6,7-dimethoxyquinolin-4-yloxy)-2,5-dimethylphenyl]amine] |
| 0.155 | COc1cc2nccc(Oc3ccc(Nc4ccc(C(C)(C)C)cc4)cc3F)c2cc1OC [Compound 18, (4-Tert-butylphenyl)-[4-(6,7-dimethoxyquinolin-4-yloxy)-3-fluorophenyl]amine] |
| 0.195 | COc1cc2nccc(Oc3ccc(Nc4ccc(C(C)(C)C)cc4)c(F)c3)c2cc1OC [Compound 19, (4-Tert-butylphenyl)-[4-(6,7-dimethoxyquinolin-4-yloxy)-2-fluorophenyl]amine] |
| 0.325 | COc1cc2nccc(Oc3ccc(N(C)c4ccc(C(C)(C)C)cc4)cc3)c2cc1OC [Compound 20, (4-Tert-butylphenyl)-[4-(6.7-dimethoxyquinolin-4-yloxy)phenyl]-methylamine] |
| 0.328 | COc1cc2c(Oc3ccc(Nc4ccc(C(C)(C)C)cc4)cc3)ccnc2cc1O [Compound 21, 4-[4-(4-Tert-butylphenylamino)phenoxy]-6-methoxy-quinolin-7-ol] |
| 0.189 | COc1cc2c(Oc3ccc(Nc4ccc(C(C)(C)C)cc4)cc3)ccnc2cc1OCCCl [Compound 22, (4-Tert-butylphenyl)-{4-[7-(2-chloroethoxy)-6-methoxyquinolin-4-yloxy]phenyl}amine] |
| 0.762 | COc1cc2c(Oc3ccc(Nc4ccc(C(C)(C)C)cc4)cc3)ccnc2cc1OCCCCl [Compound 23, (4-Tert-butylphenyl)-{4-[7-(3-chloropropoxy)-6-methoxyquinolin-4-yloxy]phenyl}amine] |
| 0.183 | COc1cc2c(Oc3ccc(Nc4ccc(C(C)(C)C)cc4)cc3)ccnc2cc1OCCCN1CCOCC1 [Compound 24, (4-Tert-butylphenyl)-{4-[6-methoxy-7-(3-morpholin-4-ylpropoxy)quinolin-4-yloxy]phenyl}amine] |
| 0.318 | COc1cc2c(Oc3ccc(Nc4ccc(C(C)(C)C)cc4)cc3)ccnc2cc1OCCC(N)=O [Compound 26, 3-{4-[4-(4-Tert-butylphenylamino)phenoxy]-6-methoxyquinolin-7-yloxy}propionamide] |
| 2.52 | COc1cc2c(Oc3ccc(Nc4ccc(C(C)(C)C)cc4)cc3)ccnc2cc1OCCC1CCCN1C (stereo not drawn) [Compound 27, (4-Tert-butylphenyl)-(4-{6-methoxy-7-[2-(1-methylpyrrolidin-2-yl)ethoxy]quinolin-4-yloxy}phenyl)amine] |
| 2.4 | COc1cc2c(Oc3ccc(Nc4ccc(C(C)(C)C)cc4)cc3)ccnc2cc1OCc1csc(C)n1 [Compound 28, (4-Tert-butylphenyl)-{4-[6-methoxy-7-(2-methylthiazol-4-ylmethoxy)quinolin-4-yloxy]phenyl}amine] |
